Results as given in patent publication US11823799B2, “Method for identifying personalized therapeutic strategies for patients affected with a cancer” (UNIVERSITE DE STRASBOURG, priority 2015, dated 2023).

Experiments:
[1] = system: recurrent glioblastoma; details: cited from earlier work
[2] = system: PC model (HID-28); assay: Prostate tumor PDX model HID-28, subcutaneous tumor growth in mice; format: in vivo, nude mice; details: Cediranib 6 mg/kg p.o; for effect on tumor growth / tumor development: Docetaxel 20 mg/kg i.p, Erlotinib 50 mg/kg p.o, vs vehicle
Excerpt: Small tumor fragments are subcutaneously implanted in the flank of athymic nude mice. When tumor size reached 1000 to 2000 mm^3, tumors are surgically excised and small tumor fragments (approximately 40 mm^3) are implanted in the subcutaneous tissue of the interscapular region of 82 nude mice. 36 mice with established growing tumors and tumor volume ranging 60 to 200 mm^3 are included in the study and randomized according to their individual tumor volume into 4 groups of 9 mice. Tumor signature is verified during the amplification and also after engraftment.
The first group is treated with Erlotinib 50 mg/kg (n=9) p.o 1 time per week during 3 weeks, the second is treated with Cediranib 6 mg/kg (n=9) p.o during 3 cycles of 5 days interrupted by 2 days of wash-out, the third group with a mix of the vehicle of Erlotinib and Cediranib (sodium carboxymethylcellulose 0.5%, captisol 15%, DMSO 1% and methylcellulose 0.5%), and the last group is treated with Docetaxel 20 mg/kg (n=9) i.p during 2 cycles of 1 injection every 3 weeks.
Tumor volume is evaluated biweekly by measuring tumor diameters, with a caliper. The formula TV (mm^3)=[length (mm)×width (mm)^2]/2 will be used, where the length and the width are the longest and the shortest diameters of the tumor, respectively.
On the day of termination (28 days after the first treatment), mice are sacrificed by cervical dislocation, tumor are collected from all mice (36 tumor samples totally) and serum from 5 mice per group is collected (20 serum samples totally).

[3] = system: PC model (HID-28); details: cited from earlier work
[4] = system: glioblastoma patient HB21 tumor; assay: Glioblastoma patient HB21 biopsy cells grafted orthotopically in mouse brain, tumor volume; format: in vivo, Immunocompromised mice; details: for tumor growth inhibition compared to standard of care (Temozolomide): SB-3CT 25 mg/kg p.o, Cediranib 6 mg/kg p.o, 21 days after first treatment
Description: Immunocompromised mice were anesthetized with isoflurane 3% (BAXTER), under 0.5 L 02, and received a subcutaneous injection of ketofen 1% 1.5 mL/Kg (MERIAL). The scalp was incised and 100 000 cells of the dissociated glioblastoma biopsy were engrafted with a 2 μL Hamilton syringe (HARVARD […]; HAM-88400) mounted on a stereotaxic set up (HARVARD […]) at the following coordinates from the bregma x: −2 mm; y: +1 mm; z: −3.5 mm at a speed of 0.66 μl/min, 5 minutes after the syringe introduction. After injection, the syringe was kept in place for 5 minutes, and then raised for 1 mm per minute. The scalp was sutured with 7.5 mm Michel stainless steel wound clips (A75, PERFECT). Animals were allowed to recover under a heat lamp several minutes before they were returned to their cage.
After 52 days of tumor development, mice were randomized in 4 groups of treatment. First group was treated with Temozolomide 40 mg/kg (n=9) i.v during 5 consecutive days, second one was treated with SB-3CT 25 mg/kg (n=9) p.o during 10 days interrupted by 2 days of wash-out after 5 days, a third group was treated with Cediranib 6 mg/kg (n=10) p.o during 10 days interrupted by 2 days of wash-out after 5 days, a last one group was treated with Erlotinib 50 mg/kg (n=9) p.o 1 time per week during 3 weeks. The administration volume was 100 μL. On the day of termination (21 days after the first treatment), all mice are sacrificed by cervical dislocation, brains are removed (38 total samples), and included in cryo-embedding media OCT© and stored at −80° C.
Brains were cut in 20 μm sections with a cryostat (LEICA CM 3050S), mounted on blade (Superfrost Super Plus), and stored at −20° C. In order to visualize the tumor, brain sections were thawed in distilled water and Stained with 2% diluted Giemsa's staining (SUBRA; RAL diagnostic 320310-1000) in distilled water at 37° C. for 2 hours. […] Tumor volume was calculated by the addition of every partial volume: [Vtotal=Σpartial volumes=Σd1× (S1+S2)/2+d2×(S2+S3)/2+ . . . +dn× (Sn+Sn+1)]. […]

[5] = system: CC model (CR-IC-028M); assay: Colorectal tumor PDX model CR-IC-028M, subcutaneous tumor growth in mice; format: in vivo, SWISS Nude mice; details: Cediranib 6 mg/kg p.o
Excerpt: Small tumor fragments were subcutaneously implanted in the right flank of 9 CB17 SCID mice. When tumor size reached 500-700 mm^3, tumors were surgically excised and small tumor fragments were subcutaneously implanted in the right flank of 52 recipient SWISS Nude mice.
The treatment started when tumors reached a mean volume of 200-300 mm^3. 40 animals out were randomized according to their individual tumor volume into 4 groups each of 10 animals using Vivo Manager® software (Biosystemes, Couternon, France). A statistical test (analysis of variance) was performed to test for homogeneity between groups.
The administration volume for the two models was 10 mL/kg (200 μL/mouse of 20 g) adjusted to the most recent individual body weight of mice.
The tumor volume was calculated by [(a×b^2) 2], where a is the largest tumor diameter and b the perpendicular tumor diameter measured with a caliper every 3 days.
On the day of termination (31 days after the first treatment), mice were sacrificed (40 total samples) by gas anesthesia over-dosage (Isoflurane) followed by cervical dislocation or exsanguination and tumor were collected from all mice.

Bevacizumab
PFS and OS advantage in phase III trials ([1]; AVAglio and RTOG phase III trials (Soffietti 2014)): significant advantage for Bevacizumab treated patients in term of PFS but not of OS
patients who seem to benefit from treatment ([1]; overall): less than 50%

CC(=O)O[C@@]12CO[C@@H]1C[C@H](O)[C@@]1(C)C(=O)[C@H](O)C3=C(C)[C@@H](OC(=O)[C@H](O)[C@@H](NC(=O)OC(C)(C)C)c4ccccc4)C[C@@](O)([C@@H](OC(=O)c4ccccc4)[C@H]21)C3(C)C [Docetaxel]
effect on tumor growth / tumor development [2]: tumor growth was inhibited
response of the model in previous results [3]: responsive

O=S(=O)(CC1CS1)c1ccc(Oc2ccccc2)cc1 (stereo not drawn) [SB-3CT]
tumor growth inhibition compared to standard of care (Temozolomide) [4]: identical to the one obtained with the standard of care

C#Cc1cccc(Nc2ncnc3cc(OCCOC)c(OCCOC)cc23)c1 [Erlotinib]
efficacy when compared to all other drugs ([4]; Erlotinib 50 mg/kg p.o 1 time per week, 3 weeks, not significantly different): −60%
effect on tumor growth / tumor development [2]: not efficient in blocking tumor development

COc1cc2c(Oc3ccc4[nH]c(C)cc4c3F)ncnc2cc1OCCCN1CCCC1 [Cediranib]
effect on tumor growth / tumor development ([5]; Cetuximab 12.5 mg/kg i.p, Trastuzumab 1 mg/kg i.p, vs vehicle): very significant anti-tumor activity
tumor volume change ([5]; end point of the protocol, p=0.01, T-test, evolution of tumor growth P<0.0001): −50%
tumor growth inhibition compared to standard of care (Temozolomide) [4]: identical to the one obtained with the standard of care
effect on tumor growth / tumor development [2]: very significant anti-tumor activity
tumor volume change ([2]; end point of the protocol, p=0.002, T-test, evolution of tumor growth P<0.0001): −78%
